# Measured values from patent US20260297070A1, “CYCLIC [COMPOUND LEFT OUT] WRN INHIBITORS” (Nimbus Wadjet, Inc., priority 2023, published 2026).
# Molecular target: T1, human Werner helicase (WRN-BV08, Uniprot Q14191, amino acids 517-1235 with L1074F point mutation) (Homo sapiens, UniProt Q14191, L1074F)
# T1 construct: Uniprot Q14191, amino acids 517-1235 with L1074F point mutation; TEV-cleavable 8×His (C, cleaved yes); made in house; host or cells: Sf9 insect cells (baculovirus)
# Experiment: WRN (BV08) ADP-Glo Assay
# Type: biochemical
# Conditions: 0.15 nM WRN, 5 μM ATP, 0.1 nM DNA duplex, 15 min preincubation, 60 min at 25° C., pH 7.5, 1% DMSO; read-out: ADP-Glo_hWRN_IC50
# Procedure, shortened: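 ADP-Glo luminescence read-out of ATP hydrolysis. Conditions: 0.15 nM WRN, 5 μM ATP, 0.1 nM DNA duplex, 1% DMSO, 60 min at 25 °C after 15 min compound preincubation. Max/min controls were DMSO and 20 μM NSC-617145; IC50 from four-parameter fit.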
# T1 sequence (Q14191 with tags, fused parts or gaps L1074F limits assumed): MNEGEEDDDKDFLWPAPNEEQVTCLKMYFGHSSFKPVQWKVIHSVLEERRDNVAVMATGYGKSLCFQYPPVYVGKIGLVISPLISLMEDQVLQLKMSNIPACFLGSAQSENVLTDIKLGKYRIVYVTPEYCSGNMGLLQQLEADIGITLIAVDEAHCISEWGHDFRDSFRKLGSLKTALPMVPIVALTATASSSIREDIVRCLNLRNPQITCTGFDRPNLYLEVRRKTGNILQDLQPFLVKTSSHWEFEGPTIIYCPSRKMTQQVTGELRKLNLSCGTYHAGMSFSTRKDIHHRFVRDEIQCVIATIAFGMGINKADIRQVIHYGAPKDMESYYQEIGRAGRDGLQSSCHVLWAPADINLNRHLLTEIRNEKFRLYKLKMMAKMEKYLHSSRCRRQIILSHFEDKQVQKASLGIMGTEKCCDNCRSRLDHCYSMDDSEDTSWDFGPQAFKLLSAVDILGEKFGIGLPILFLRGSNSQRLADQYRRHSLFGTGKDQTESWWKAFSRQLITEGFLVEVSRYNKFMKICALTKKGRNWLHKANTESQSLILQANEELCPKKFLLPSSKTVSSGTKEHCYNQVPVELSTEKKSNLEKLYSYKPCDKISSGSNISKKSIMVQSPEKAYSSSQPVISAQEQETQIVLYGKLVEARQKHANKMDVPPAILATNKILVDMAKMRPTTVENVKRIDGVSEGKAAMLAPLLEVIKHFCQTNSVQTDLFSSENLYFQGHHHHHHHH
row,SMILES,IC50
1,"COc1ccc2sc(CN(C(=O)Cc3ccc(-n4cccc4)cc3)C3C=CS(=O)(=O)C3)nc2c1 (stereo not shown) [I-102, N-(1,1-dioxo-2,3-dihydro-1lambda6-thiophen-3-yl)-N-[(5-methoxy-1,3-benzothiazol-2-yl)methyl]-2-[4-(1H-pyrrol-1-yl)phenyl]acetamide]",500 to 5000 nM
2,"Cc1cccn1-c1ccc(CC(=O)N(Cc2ccnc3c2CCC3O)C2C=CS(=O)(=O)C2)c(F)c1 (stereo not shown) [I-103, N-(1,1-dioxido-2,3-dihydrothiophen-3-yl)-2-(2-fluoro-4-(2-methyl-1H-pyrrol-1-yl)phenyl)-N-((7-hydroxy-6,7-dihydro-5H-cyclopenta[b]pyridin-4-yl)methyl)acetamide]",500 to 5000 nM
3,"CN(C)C(=O)C(C(=O)N(Cc1ccncc1)C1C=CS(=O)(=O)C1)c1ccc(-c2ccc(F)cc2)cc1 (stereo not shown) [I-104, N′-(1,1-dioxo-2,3-dihydro-1lambda6-thiophen-3-yl)-2-{4′-fluoro-[1,1′-biphenyl]-4-yl}-N,N-dimethyl-N′-[(pyridin-4-yl)methyl]propanediamide]",500 to 5000 nM
4,"COc1cc(CN(C(=O)Cc2ccc(C(F)(F)F)cc2)C2C=CS(=O)(=O)C2)ccn1 (stereo not shown) [I-105, N-(1,1-dioxo-2,3-dihydro-1lambda6-thiophen-3-yl)-N-[(2-methoxypyridin-4-yl)methyl]-2-[4-(trifluoromethyl)phenyl]acetamide]",500 to 5000 nM
5,"CC(C(=O)N(Cc1ccnc(C(C)(C)O)c1)[C@@H]1C=CS(=O)(=O)C1)n1cc(-c2ccc(F)cc2)cn1 (stereo partly drawn) [I-106, N-[(3R)-1,1-dioxo-2,3-dihydro-1lambda6-thiophen-3-yl]-2-[4-(4-fluorophenyl)-1H-pyrazol-1-yl]-N-{[2-(2-hydroxypropan-2-yl)pyridin-4-yl]methyl}propanamide]",500 to 5000 nM
6,"CN(C)C(=O)C(C(=O)N(Cc1nc(C2CC2)cs1)C1C=CS(=O)(=O)C1)c1ccc(S(F)(F)(F)(F)F)cc1 (stereo not shown) [I-107, N′-[(4-cyclopropyl-1,3-thiazol-2-yl)methyl]-N′-(1,1-dioxo-2,3-dihydro-1lambda6-thiophen-3-yl)-N,N-dimethyl-2-[4-(pentafluoro-lambda6-sulfanyl)phenyl]propanediamide]",500 to 5000 nM
7,"CC(C)(O)c1cc(CN(C(=O)Cn2cc(-c3ccccc3F)cn2)C2C=CS(=O)(=O)C2)ccn1 (stereo not shown) [I-108, N-(1,1-dioxo-2,3-dihydro-1lambda6-thiophen-3-yl)-2-[4-(2-fluorophenyl)-1H-pyrazol-1-yl]-N-{[2-(2-hydroxypropan-2-yl)pyridin-4-yl]methyl}acetamide]",500 to 5000 nM
8,"COc1cc(CN(C(=O)C2Cc3cc(-n4cccc4C)ccc3O2)C2C=CS(=O)(=O)C2)ccn1 (stereo not shown) [I-109, N-(1,1-dioxido-2,3-dihydrothiophen-3-yl)-N-((2-methoxypyridin-4-yl)methyl)-5-(2-methyl-1H-pyrrol-1-yl)-2,3-dihydrobenzofuran-2-carboxamide]",500 to 5000 nM
9,"O=C(Cc1ccc(-c2ccc(F)cc2)cc1F)N(Cc1ccnc(OC2CC2)c1)C1C=CS(=O)(=O)C1 (stereo not shown) [I-110, N-[(2-cyclopropoxypyridin-4-yl)methyl]-2-{3,4′-difluoro-[1,1′-biphenyl]-4-yl}-N-(1,1-dioxo-2,3-dihydro-1lambda6-thiophen-3-yl)acetamide]",500 to 5000 nM
10,"O=C(Cc1ccc(-n2cccc2)cc1)N(Cc1nc(C2CC2)cs1)C1C=CS(=O)(=O)C1 (stereo not shown) [I-111, N-[(4-cyclopropyl-1,3-thiazol-2-yl)methyl]-N-(1,1-dioxo-2,3-dihydro-1lambda6-thiophen-3-yl)-2-[4-(1H-pyrrol-1-yl)phenyl]acetamide]",500 to 5000 nM
11,"COc1nccc(CN(C(=O)Cc2ccc(-n3cccc3C)cc2F)C2C=CS(=O)(=O)C2)n1 (stereo not shown) [I-112, N-(1,1-dioxo-2,3-dihydro-1lambda6-thiophen-3-yl)-2-[2-fluoro-4-(2-methyl-1H-pyrrol-1-yl)phenyl]-N-[(2-methoxypyrimidin-4-yl)methyl]acetamide]",500 to 5000 nM
12,"CCOC(C(=O)N(Cc1ccnc(OC)c1)C1C=CS(=O)(=O)C1)c1ccc(-c2ccc(F)cc2)cc1 (stereo not shown) [I-113, N-(1,1-dioxo-2,3-dihydro-1lambda6-thiophen-3-yl)-2-ethoxy-2-{4′-fluoro-[1,1′-biphenyl]-4-yl}-N-[(2-methoxypyridin-4-yl)methyl]acetamide]",500 to 5000 nM
13,"COc1cc(CN(C(=O)C2Cc3cc(C(F)(F)F)ccc3O2)[C@@H]2C=CS(=O)(=O)C2)ccn1 (stereo partly drawn) [I-114, N-[(3R)-1,1-dioxo-2,3-dihydro-1lambda6-thiophen-3-yl]-N-[(2-methoxypyridin-4-yl)methyl]-5-(trifluoromethyl)-2,3-dihydro-1-benzofuran-2-carboxamide]",500 to 5000 nM
14,"O=C(Cc1ccc(-c2ccc(F)cc2)cc1F)N(Cc1ccncc1)C1C=CS(=O)(=O)C1 (stereo not shown) [I-115, 2-{3,4′-difluoro-[1,1′-biphenyl]-4-yl}-N-(1,1-dioxo-2,3-dihydro-1lambda6-thiophen-3-yl)-N-[(pyridin-4-yl)methyl]acetamide]",500 to 5000 nM
15,"CC(C)(O)c1cc(CN(C(=O)Cc2ncc(-c3ccc(F)c(F)c3)cn2)C2C=CS(=O)(=O)C2)ccn1 (stereo not shown) [I-116, 2-[5-(3,4-difluorophenyl)pyrimidin-2-yl]-N-(1,1-dioxo-2,3-dihydro-1lambda6-thiophen-3-yl)-N-{[2-(2-hydroxypropan-2-yl)pyridin-4-yl]methyl}acetamide]",500 to 5000 nM
16,"COc1cc(CN(C(=O)Cc2ccc(C(C)(F)F)cc2)C2C=CS(=O)(=O)C2)ccn1 (stereo not shown) [I-117, 2-[4-(1,1-difluoroethyl)phenyl]-N-(1,1-dioxo-2,3-dihydro-1lambda6-thiophen-3-yl)-N-[(2-methoxypyridin-4-yl)methyl]acetamide]",500 to 5000 nM
17,"COCc1cc(CN(C(=O)Cc2ccc(-n3cccc3C)cc2F)C2C=CS(=O)(=O)C2)ccn1 (stereo not shown) [I-118, N-(1,1-dioxo-2,3-dihydro-1lambda6-thiophen-3-yl)-2-[2-fluoro-4-(2-methyl-1H-pyrrol-1-yl)phenyl]-N-{[2-(methoxymethyl)pyridin-4-yl]methyl}acetamide]",500 to 5000 nM
18,"COc1cc(CN(C(=O)Cc2ccc(-n3cccc3C)cc2)C2C=CS(=O)(=O)C2)ccn1 (stereo not shown) [I-119, N-(1,1-dioxo-2,3-dihydro-1lambda6-thiophen-3-yl)-N-[(2-methoxypyridin-4-yl)methyl]-2-[4-(2-methyl-1H-pyrrol-1-yl)phenyl]acetamide]",500 to 5000 nM
19,"O=C(Cc1ccc(-c2cccc(F)c2)cc1F)N(Cc1ccncc1)C1C=CS(=O)(=O)C1 (stereo not shown) [I-120, 2-{3,3′-difluoro-[1,1′-biphenyl]-4-yl}-N-(1,1-dioxo-2,3-dihydro-1lambda6-thiophen-3-yl)-N-[(pyridin-4-yl)methyl]acetamide]",500 to 5000 nM
20,"COc1cc(CN(C(=O)C2CNc3cc(-c4ccc(F)cc4)ccc32)C2C=CS(=O)(=O)C2)ccn1 (stereo not shown) [I-121, N-(1,1-dioxo-2,3-dihydro-1lambda6-thiophen-3-yl)-6-(4-fluorophenyl)-N-[(2-methoxypyridin-4-yl)methyl]-2,3-dihydro-1H-indole-3-carboxamide]",500 to 5000 nM
21,"O=C(Cc1ccc(-n2cccc2)cc1F)N(Cc1ccc(Br)cc1)C1C=CS(=O)(=O)C1 (stereo not shown) [I-122, N-[(4-bromophenyl)methyl]-N-(1,1-dioxo-2,3-dihydro-1lambda6-thiophen-3-yl)-2-[2-fluoro-4-(1H-pyrrol-1-yl)phenyl]acetamide]",500 to 5000 nM
22,"CC(C)c1ccc(CC(=O)N(Cc2ccnc(C(C)(C)O)c2)C2C=CS(=O)(=O)C2)cc1 (stereo not shown) [I-123, N-(1,1-dioxo-2,3-dihydro-1lambda6-thiophen-3-yl)-N-{[2-(2-hydroxypropan-2-yl)pyridin-4-yl]methyl}-2-[4-(propan-2-yl)phenyl]acetamide]",500 to 5000 nM
23,"O=C(C1CNc2cc(-c3ccc(F)cc3)ccc21)N(Cc1ccncc1)C1C=CS(=O)(=O)C1 (stereo not shown) [I-124, N-(1,1-dioxo-2,3-dihydro-1lambda6-thiophen-3-yl)-6-(4-fluorophenyl)-N-[(pyridin-4-yl)methyl]-2,3-dihydro-1H-indole-3-carboxamide]",500 to 5000 nM
24,"O=C(C(C(=O)N(Cc1ccncc1)C1C=CS(=O)(=O)C1)c1ccc(-c2ccc(F)cc2)cc1)N1CCCC1 (stereo not shown) [I-125, N-(1,1-dioxo-2,3-dihydro-1lambda6-thiophen-3-yl)-2-{4′-fluoro-[1,1′-biphenyl]-4-yl}-3-oxo-N-[(pyridin-4-yl)methyl]-3-(pyrrolidin-1-yl)propanamide]",500 to 5000 nM
25,"COc1cc(CN(C(=O)C(C)c2ccc(S(F)(F)(F)(F)F)cc2)C2C=CS(=O)(=O)C2)ccn1 (stereo not shown) [I-126, N-(1,1-dioxo-2,3-dihydro-1lambda6-thiophen-3-yl)-N-[(2-methoxypyridin-4-yl)methyl]-2-[4-(pentafluoro-lambda6-sulfanyl)phenyl]propanamide]",500 to 5000 nM
26,"CC(C)(O)c1cc(CN(C(=O)Cc2ccc(C(F)(F)F)cc2F)C2C=CS(=O)(=O)C2)ccn1 (stereo not shown) [I-128, N-(1,1-dioxo-2,3-dihydro-1lambda6-thiophen-3-yl)-2-[2-fluoro-4-(trifluoromethyl)phenyl]-N-{[2-(2-hydroxypropan-2-yl)pyridin-4-yl]methyl}acetamide]",500 to 5000 nM
27,"COc1cc(CN(C(=O)Cc2ncc(-c3ccc(F)c(F)c3)cc2F)C2C=CS(=O)(=O)C2)ccn1 (stereo not shown) [I-129, 2-[5-(3,4-difluorophenyl)-3-fluoropyridin-2-yl]-N-(1,1-dioxo-2,3-dihydro-1lambda6-thiophen-3-yl)-N-[(2-methoxypyridin-4-yl)methyl]acetamide]",500 to 5000 nM
28,"CC(C)(O)c1cc(CN(C(=O)C2Cc3cc(C(F)(F)F)ccc3O2)C2C=CS(=O)(=O)C2)ccn1 (stereo not shown) [I-131, N-(1,1-dioxo-2,3-dihydro-1lambda6-thiophen-3-yl)-N-{[2-(2-hydroxypropan-2-yl)pyridin-4-yl]methyl}-5-(trifluoromethyl)-2,3-dihydro-1-benzofuran-2-carboxamide]",500 to 5000 nM
